{
  "source": "patent US20260262643A1",
  "about": "“HERBICIDAL BENZOXAZINES” (FMC CORPORATION, priority 2022, published 2026)",
  "key": {"barnyardgrass [1]": {"test_system": "barnyardgrass", "test": "Test C preemergence", "assay_type": "in vivo, Echinochloa crusgalli", "procedure,_shortened": "(§1)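 Pre: seeds in loam/sand, directed soil spray. Post: 1–2 leaf plants, 2–10 cm. Cmpd in non-phytotoxic solvent + surfactant. Greenhouse 10 d; visual rating vs untreated, 0 = none, 100 = complete control.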"}, "pigweed, palmer [2]": {"test_system": "pigweed, palmer", "test": "Test C postemergence", "assay_type": "in vivo, Amaranthus palmeri", "conditions": "10 days, 0 to 100 scale (0 no effect, 100 complete control)", "procedure,_shortened": "as §1"}, "sedge, umbrella": {"test_system": "sedge, umbrella", "test": "Test D flooded paddy test", "assay_type": "in vivo, Cyperus difformis", "conditions": "250 g ai/ha, applied to paddy water, visual rating after 13 to 14 days, scale 0 to 100 (0 no effect, 100 complete control)", "procedure,_shortened": "(§2)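 Compounds go straight into paddy water over 2-leaf plants in pots flooded to 3 cm. Greenhouse holding lasts 13 to 14 days. Injury is scored by eye against controls from 0 (none) to 100 (complete control).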"}, "kochia [3]": {"test_system": "kochia", "test": "Test C postemergence", "assay_type": "in vivo, Bassia scoparia", "conditions": "10 days, 0 to 100 scale (0 no effect, 100 complete control)", "procedure,_shortened": "as §1"}, "ducksalad": {"test_system": "ducksalad", "test": "Test D flooded paddy test", "assay_type": "in vivo, Heteranthera limosa", "conditions": "250 g ai/ha, applied to paddy water, visual rating after 13 to 14 days, scale 0 to 100 (0 no effect, 100 complete control)", "procedure,_shortened": "as §2"}, "kochia [4]": {"test_system": "kochia", "test": "Test C preemergence", "assay_type": "in vivo, Bassia scoparia", "procedure,_shortened": "as §1"}, "oat, wild [5]": {"test_system": "oat, wild", "test": "Test C postemergence", "assay_type": "in vivo, Avena fatua", "conditions": "10 days, 0 to 100 scale (0 no effect, 100 complete control)", "procedure,_shortened": "as §1"}, "corn [6]": {"test_system": "corn", "test": "Test C preemergence", "assay_type": "in vivo, Zea mays", "procedure,_shortened": "as §1"}, "ragweed [7]": {"test_system": "ragweed", "test": "Test C preemergence", "assay_type": "in vivo, Ambrosia artemisiifolia", "procedure,_shortened": "as §1"}, "ryegrass, Italian [8]": {"test_system": "ryegrass, Italian", "test": "Test C preemergence", "assay_type": "in vivo, Lolium multiflorum", "procedure,_shortened": "as §1"}, "soybean [9]": {"test_system": "soybean", "test": "Test C postemergence", "assay_type": "in vivo, Glycine max", "conditions": "10 days, 0 to 100 scale (0 no effect, 100 complete control)", "procedure,_shortened": "as §1"}, "corn [10]": {"test_system": "corn", "test": "Test C postemergence", "assay_type": "in vivo, Zea mays", "conditions": "10 days, 0 to 100 scale (0 no effect, 100 complete control)", "procedure,_shortened": "as §1"}, "wheat [11]": {"test_system": "wheat", "test": "Test C preemergence", "assay_type": "in vivo, Triticum aestivum", "procedure,_shortened": "as §1"}, "blackgrass [12]": {"test_system": "blackgrass", "test": "Test C postemergence", "assay_type": "in vivo, Alopecurus myosuroides", "conditions": "10 days, 0 to 100 scale (0 no effect, 100 complete control)", "procedure,_shortened": "as §1"}, "galium": {"test_system": "galium", "test": "Test C postemergence", "assay_type": "in vivo, Galium aparine", "conditions": "10 days, 0 to 100 scale (0 no effect, 100 complete control)", "procedure,_shortened": "as §1"}, "horseweed": {"test_system": "horseweed", "test": "Test C postemergence", "assay_type": "in vivo, Erigeron canadensis", "conditions": "10 days, 0 to 100 scale (0 no effect, 100 complete control)", "procedure,_shortened": "as §1"}, "pigweed, palmer [13]": {"test_system": "pigweed, palmer", "test": "Test C preemergence", "assay_type": "in vivo, Amaranthus palmeri", "procedure,_shortened": "as §1"}, "barnyardgrass [14]": {"test_system": "barnyardgrass", "test": "Test C postemergence", "assay_type": "in vivo, Echinochloa crusgalli", "conditions": "10 days, 0 to 100 scale (0 no effect, 100 complete control)", "procedure,_shortened": "as §1"}, "ryegrass, Italian [15]": {"test_system": "ryegrass, Italian", "test": "Test C postemergence", "assay_type": "in vivo, Lolium multiflorum", "conditions": "10 days, 0 to 100 scale (0 no effect, 100 complete control)", "procedure,_shortened": "as §1"}, "barnyardgrass [16]": {"test_system": "barnyardgrass", "test": "Test D flooded paddy test", "assay_type": "in vivo, Echinochloa crus-galli", "conditions": "250 g ai/ha, applied to paddy water, visual rating after 13 to 14 days, scale 0 to 100 (0 no effect, 100 complete control)", "procedure,_shortened": "as §2"}, "wheat [17]": {"test_system": "wheat", "test": "Test C postemergence", "assay_type": "in vivo, Triticum aestivum", "conditions": "10 days, 0 to 100 scale (0 no effect, 100 complete control)", "procedure,_shortened": "as §1"}, "green foxtail [18]": {"test_system": "green foxtail", "test": "Test C postemergence", "assay_type": "in vivo, Setaria viridis", "conditions": "10 days, 0 to 100 scale (0 no effect, 100 complete control)", "procedure,_shortened": "as §1"}, "green foxtail [19]": {"test_system": "green foxtail", "test": "Test C preemergence", "assay_type": "in vivo, Setaria viridis", "procedure,_shortened": "as §1"}, "ragweed [20]": {"test_system": "ragweed", "test": "Test C postemergence", "assay_type": "in vivo, Ambrosia artemisiifolia", "conditions": "10 days, 0 to 100 scale (0 no effect, 100 complete control)", "procedure,_shortened": "as §1"}, "oat, wild [21]": {"test_system": "oat, wild", "test": "Test C preemergence", "assay_type": "in vivo, Avena fatua", "procedure,_shortened": "as §1"}, "soybean [22]": {"test_system": "soybean", "test": "Test C preemergence", "assay_type": "in vivo, Glycine max", "procedure,_shortened": "as §1"}, "rice": {"test_system": "rice", "test": "Test D flooded paddy test", "assay_type": "in vivo, Oryza sativa", "conditions": "250 g ai/ha, applied to paddy water, visual rating after 13 to 14 days, scale 0 to 100 (0 no effect, 100 complete control)", "procedure,_shortened": "as §2"}, "blackgrass [23]": {"test_system": "blackgrass", "test": "Test C preemergence", "assay_type": "in vivo, Alopecurus myosuroides", "procedure,_shortened": "as §1"}, "[24]": {"conditions": "500 g ai/ha, preemergence, 0 to 100 scale (0 no effect, 100 complete control)"}, "[25]": {"conditions": "Preemergence, 125 g ai/ha, 0 to 100 scale, 0 no effect, 100 complete control"}},
  "data": [
    {"smiles": "COCc1ncn(-c2ccc(C)c(C(=O)N3C[C@H](C)Oc4c(Cl)cccc43)c2)n1", "note": "[Compound 357]", "values": [
      {"measurement": "Barnyardgrass plant response rating", "setting": "barnyardgrass [1]; [24]", "result": 100},
      {"measurement": "Plant response rating, Barnyardgrass", "setting": "barnyardgrass [1]; [25]", "result": 80},
      {"measurement": "Plant response rating, Pigweed, Palmer", "setting": "pigweed, palmer [2]; 500 g ai/ha, postemergence", "result": 100},
      {"measurement": "Plant response rating, Pigweed, Palmer", "setting": "pigweed, palmer [2]; Postemergence, 125 g ai/ha", "result": 50},
      {"measurement": "Plant response rating, Sedge, Umbrella (Flood)", "setting": "sedge, umbrella", "result": 90},
      {"measurement": "Plant response rating, Kochia", "setting": "kochia [3]; 500 g ai/ha, postemergence", "result": 70},
      {"measurement": "Plant response rating, Kochia", "setting": "kochia [3]; Postemergence, 125 g ai/ha", "result": 50},
      {"measurement": "Plant response rating, Ducksalad (Flood)", "setting": "ducksalad", "result": 45},
      {"measurement": "Kochia plant response rating", "setting": "kochia [4]; [24]", "result": 90},
      {"measurement": "Plant response rating, Kochia", "setting": "kochia [4]; [25]", "result": 50},
      {"measurement": "Plant response rating, Oat, Wild", "setting": "oat, wild [5]; 500 g ai/ha, postemergence", "result": 90},
      {"measurement": "Plant response rating, Oat, Wild", "setting": "oat, wild [5]; Postemergence, 125 g ai/ha", "result": 30},
      {"measurement": "Corn plant response rating", "setting": "corn [6]; [24]", "result": 20},
      {"measurement": "Plant response rating, Corn", "setting": "corn [6]; [25]", "result": 10},
      {"measurement": "Ragweed plant response rating", "setting": "ragweed [7]; [24]", "result": 60},
      {"measurement": "Plant response rating, Ragweed", "setting": "ragweed [7]; [25]", "result": 10},
      {"measurement": "Ryegrass, Italian plant response rating", "setting": "ryegrass, Italian [8]; [24]", "result": 100},
      {"measurement": "Plant response rating, Ryegrass, Italian", "setting": "ryegrass, Italian [8]; [25]", "result": 100},
      {"measurement": "Plant response rating, Soybean", "setting": "soybean [9]; 500 g ai/ha, postemergence", "result": 100},
      {"measurement": "Plant response rating, Soybean", "setting": "soybean [9]; Postemergence, 125 g ai/ha", "result": 100},
      {"measurement": "Plant response rating, Corn", "setting": "corn [10]; 500 g ai/ha, postemergence", "result": 80},
      {"measurement": "Plant response rating, Corn", "setting": "corn [10]; Postemergence, 125 g ai/ha", "result": 40},
      {"measurement": "Wheat plant response rating", "setting": "wheat [11]; [24]", "result": 70},
      {"measurement": "Plant response rating, Wheat", "setting": "wheat [11]; [25]", "result": 0},
      {"measurement": "Plant response rating, Blackgrass", "setting": "blackgrass [12]; 500 g ai/ha, postemergence", "result": 100},
      {"measurement": "Plant response rating, Blackgrass", "setting": "blackgrass [12]; Postemergence, 125 g ai/ha", "result": 90},
      {"measurement": "Plant response rating, Galium", "setting": "galium; 500 g ai/ha, postemergence", "result": 100},
      {"measurement": "Plant response rating, Galium", "setting": "galium; Postemergence, 125 g ai/ha", "result": 100},
      {"measurement": "Plant response rating, Horseweed", "setting": "horseweed; 500 g ai/ha, postemergence", "result": 80},
      {"measurement": "Plant response rating, Horseweed", "setting": "horseweed; Postemergence, 125 g ai/ha", "result": 60},
      {"measurement": "Pigweed, Palmer plant response rating", "setting": "pigweed, palmer [13]; [24]", "result": 100},
      {"measurement": "Plant response rating, Pigweed, Palmer", "setting": "pigweed, palmer [13]; [25]", "result": 90},
      {"measurement": "Plant response rating, Barnyardgrass", "setting": "barnyardgrass [14]; 500 g ai/ha, postemergence", "result": 100},
      {"measurement": "Plant response rating, Barnyardgrass", "setting": "barnyardgrass [14]; Postemergence, 125 g ai/ha", "result": 50},
      {"measurement": "Plant response rating, Ryegrass, Italian", "setting": "ryegrass, Italian [15]; 500 g ai/ha, postemergence", "result": 100},
      {"measurement": "Plant response rating, Ryegrass, Italian", "setting": "ryegrass, Italian [15]; Postemergence, 125 g ai/ha", "result": 50},
      {"measurement": "Plant response rating, Barnyardgrass (Flood)", "setting": "barnyardgrass [16]", "result": 10},
      {"measurement": "Plant response rating, Wheat", "setting": "wheat [17]; 500 g ai/ha, postemergence", "result": 80},
      {"measurement": "Plant response rating, Wheat", "setting": "wheat [17]; Postemergence, 125 g ai/ha", "result": 20},
      {"measurement": "Plant response rating, Foxtail, Green", "setting": "green foxtail [18]; 500 g ai/ha, postemergence", "result": 90},
      {"measurement": "Plant response rating, Foxtail, Green", "setting": "green foxtail [18]; Postemergence, 125 g ai/ha", "result": 30},
      {"measurement": "Foxtail, Green plant response rating", "setting": "green foxtail [19]; [24]", "result": 100},
      {"measurement": "Plant response rating, Foxtail, Green", "setting": "green foxtail [19]; [25]", "result": 100},
      {"measurement": "Plant response rating, Ragweed", "setting": "ragweed [20]; 500 g ai/ha, postemergence", "result": 60},
      {"measurement": "Plant response rating, Ragweed", "setting": "ragweed [20]; Postemergence, 125 g ai/ha", "result": 20},
      {"measurement": "Oat, Wild plant response rating", "setting": "oat, wild [21]; [24]", "result": 90},
      {"measurement": "Plant response rating, Oat, Wild", "setting": "oat, wild [21]; [25]", "result": 60},
      {"measurement": "Soybean plant response rating", "setting": "soybean [22]; [24]", "result": 100},
      {"measurement": "Plant response rating, Soybean", "setting": "soybean [22]; [25]", "result": 100},
      {"measurement": "Plant response rating, Rice (Flood)", "setting": "rice", "result": 0},
      {"measurement": "Blackgrass plant response rating", "setting": "blackgrass [23]; [24]", "result": 100},
      {"measurement": "Plant response rating, Blackgrass", "setting": "blackgrass [23]; [25]", "result": 80}
    ]}
  ]
}
